Data as given in patent US6737383B1, “Herbicidal oxadiazolidines” (priority 1999, dated 2004).

Columns and labels:
sugar beet = test: Test B pre/postemergence sugar beet; type: in vivo, Beta vulgaris
How it was run: (§1)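 Herbicidal effect was estimated by eye on a ten-point control scale after plants spent twelve to sixteen days in a greenhouse following soil or foliar treatment. Foliar sprays targeted plants at one to four leaves; all doses were formulated in a non-phytotoxic solvent with surfactant.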

rape = test: Test B pre/postemergence rape; type: in vivo, Brassica napus
How it was run: as §1

wheat = test: Test B pre/postemergence wheat; type: in vivo, Triticum aestivum
How it was run: as §1

morningglory = test: Test B pre/postemergence morningglory; type: in vivo, Ipomoea hederacea
How it was run: as §1

crabgrass = test: Test B pre/postemergence crabgrass; type: in vivo, Digitaria sanguinalis
How it was run: as §1

giant foxtail = test: Test B pre/postemergence giant foxtail; type: in vivo, Setaria faberii
How it was run: as §1

pigweed = test: Test B pre/postemergence pigweed; type: in vivo, Amaranthus retroflexus
How it was run: as §1

purple nutsedge = test: Test B pre/postemergence purple nutsedge; type: in vivo, Cyperus rotundus
How it was run: as §1

soybean = test: Test B pre/postemergence soybean; type: in vivo, Glycine max
How it was run: as §1

surinam grass = test: Test B pre/postemergence surinam grass; type: in vivo, Brachiaria decumbens
How it was run: as §1

corn = test: Test B pre/postemergence corn; type: in vivo, Zea mays
How it was run: as §1

blackgrass = test: Test B pre/postemergence blackgrass; type: in vivo, Alopecurus myosuroides
How it was run: as §1

wild oat = test: Test B pre/postemergence wild oat; type: in vivo, Avena fatua
How it was run: as §1

velvetleaf = test: Test B pre/postemergence velvetleaf; type: in vivo, Abutilon theophrasti
How it was run: as §1

bedstraw = test: Test B pre/postemergence bedstraw; type: in vivo, Galium aparine
How it was run: as §1

cocklebur = test: Test B pre/postemergence cocklebur; type: in vivo, Xanthium strumarium
How it was run: as §1

[1] = Postemergence, Rate 62 g/ha, scale of 0 to 10, 0 is no effect, 10 is complete control
[2] = Postemergence, Rate 125 g/ha, scale 0 to 10, 0 is no effect, 10 is complete control
[3] = Postemergence, Rate 500 g/ha, scale 0 to 10, 0 is no effect, 10 is complete control
[4] = Preemergence, Rate 62 g/ha, scale of 0 to 10 where 0 is no effect and 10 is complete control
[5] = Preemergence, Rate 125 g/ha, scale 0 to 10, 0 is no effect, 10 is complete control
[6] = Preemergence, Rate 500 g/ha, scale of 0 to 10 where 0 is no effect and 10 is complete control
[7] = Rate 250 g/ha, Postemergence, scale of 0 to 10 where 0 is no effect and 10 is complete control
[8] = Preemergence, Rate 500 g/ha, scale 0 to 10, 0 is no effect, 10 is complete control

CCOC(=O)C=C(Cn1c(=O)on(C(=O)N(c2ccc(F)cc2F)C(C)C)c1=O)OCC [Compound 519]
10: Crabgrass plant response rating (0 to 10 scale) (crabgrass; Preemergence, Rate 250 g/ha) | Crabgrass plant response rating (crabgrass; [6]) | Plant response rating, Giant foxtail (giant foxtail; [4]) | Giant foxtail plant response rating (giant foxtail; [5]) | Giant foxtail plant response rating (0 to 10 scale) (giant foxtail; Preemergence, Rate 250 g/ha) | Giant foxtail plant response rating (giant foxtail; [6])
3: Soybean plant response rating (soybean; [1]) | Soybean plant response rating (soybean; [2])
8: Crabgrass plant response rating (crabgrass; [5])
2: Crabgrass plant response rating (crabgrass; [2]) | Velvetleaf plant response rating (velvetleaf; [1]) | Velvetleaf plant response rating (velvetleaf; [2])
0: Sugarbeets plant response rating (sugar beet; [1]) | Sugarbeets plant response rating (sugar beet; [2]) | Plant response rating, Sugarbeets (sugar beet; [3]) | Plant response rating, Sugarbeets (sugar beet; [4]) | Sugarbeets plant response rating (sugar beet; [5]) | Sugarbeets plant response rating (0 to 10 scale) (sugar beet; Preemergence, Rate 250 g/ha) | Sugarbeets plant response rating (sugar beet; [6]) | Plant response rating, Sugarbeets (sugar beet; [7]) | Rape plant response rating (rape; [1]) | Rape plant response rating (rape; [2]) | Plant response rating, Rape (rape; [3]) | Plant response rating, Rape (rape; [4]) | Rape plant response rating (rape; [5]) | Rape plant response rating (0 to 10 scale) (rape; Preemergence, Rate 250 g/ha) | Rape plant response rating (rape; [6]) | Plant response rating, Rape (rape; [7]) | Wheat plant response rating (wheat; [1]) | Wheat plant response rating (wheat; [2]) | Plant response rating, Wheat (wheat; [3]) | Plant response rating, Wheat (wheat; [4]) | Wheat plant response rating (wheat; [5]) | Wheat plant response rating (0 to 10 scale) (wheat; Preemergence, Rate 250 g/ha) | Wheat plant response rating (wheat; [6]) | Plant response rating, Wheat (wheat; [7]) | Morningglory plant response rating (morningglory; [1]) | Morningglory plant response rating (morningglory; [2]) | Plant response rating, Morningglory (morningglory; [3]) | Plant response rating, Morningglory (morningglory; [4]) | Morningglory plant response rating (morningglory; [5]) | Morningglory plant response rating (0 to 10 scale) (morningglory; Preemergence, Rate 250 g/ha) | Morningglory plant response rating (morningglory; [6]) | Plant response rating, Morningglory (morningglory; [7]) | Crabgrass plant response rating (crabgrass; [1]) | Redroot pigweed plant response rating (pigweed; [1]) | Redroot pigweed plant response rating (pigweed; [2]) | Plant response rating, Redroot pigweed (pigweed; [3]) | Plant response rating, Redroot pigweed (pigweed; [4]) | Redroot pigweed plant response rating (pigweed; [5]) | Redroot pigweed plant response rating (0 to 10 scale) (pigweed; Preemergence, Rate 250 g/ha) | Redroot pigweed plant response rating (pigweed; [6]) | Plant response rating, Redroot pigweed (pigweed; [7]) | Nutsedge plant response rating (purple nutsedge; [2]) | Plant response rating, Nutsedge (purple nutsedge; [3]) | Plant response rating, Nutsedge (purple nutsedge; [4]) | Nutsedge plant response rating (purple nutsedge; [5]) | Nutsedge plant response rating (purple nutsedge; [6]) | Plant response rating, Soybean (soybean; [4]) | Soybean plant response rating (soybean; [5]) | Soybean plant response rating (0 to 10 scale) (soybean; Preemergence, Rate 250 g/ha) | Soybean plant response rating (soybean; [6]) | B. signalgrass plant response rating (surinam grass; [1]) | B. signalgrass plant response rating (surinam grass; [2]) | Plant response rating, B. signalgrass (surinam grass; [3]) | Plant response rating, B. signalgrass (surinam grass; [4]) | B. signalgrass plant response rating (surinam grass; [5]) | B. signalgrass plant response rating (0 to 10 scale, 0 is no effect, 10 is complete control) (surinam grass; Preemergence, Rate 250 g/ha) | B. signalgrass plant response rating (surinam grass; [8]) | Plant response rating, B. signalgrass (surinam grass; [7]) | Corn plant response rating (corn; [1]) | Corn plant response rating (corn; [2]) | Plant response rating, Corn (corn; [3]) | Plant response rating, Corn (corn; [4]) | Corn plant response rating (corn; [5]) | Corn plant response rating (0 to 10 scale) (corn; Preemergence, Rate 250 g/ha) | Corn plant response rating (corn; [6]) | Plant response rating, Corn (corn; [7]) | Blackgrass plant response rating (blackgrass; [1]) | Blackgrass plant response rating (blackgrass; [2]) | Plant response rating, Blackgrass (blackgrass; [3]) | Plant response rating, Blackgrass (blackgrass; [4]) | Blackgrass plant response rating (blackgrass; [5]) | Plant response rating, Blackgrass (blackgrass; [7]) | Wild oats plant response rating (wild oat; [1]) | Wild oats plant response rating (wild oat; [2]) | Plant response rating, Wild oats (wild oat; [3]) | Plant response rating, Wild oats (wild oat; [4]) | Wild oats plant response rating (wild oat; [5]) | Wild oats plant response rating (0 to 10 scale) (wild oat; Preemergence, Rate 250 g/ha) | Wild oats plant response rating (wild oat; [6]) | Plant response rating, Wild oats (wild oat; [7]) | Plant response rating, Velvetleaf (velvetleaf; [4]) | Velvetleaf plant response rating (velvetleaf; [5]) | Velvetleaf plant response rating (0 to 10 scale) (velvetleaf; Preemergence, Rate 250 g/ha) | Velvetleaf plant response rating (velvetleaf; [6]) | Bedstraw plant response rating (bedstraw; [1]) | Plant response rating, Bedstraw (bedstraw; [3]) | Plant response rating, Bedstraw (bedstraw; [4]) | Bedstraw plant response rating (bedstraw; [5]) | Bedstraw plant response rating (0 to 10 scale) (bedstraw; Preemergence, Rate 250 g/ha) | Bedstraw plant response rating (bedstraw; [8]) | Plant response rating, Bedstraw (bedstraw; [7]) | Cocklebur plant response rating (cocklebur; [1]) | Cocklebur plant response rating (cocklebur; [2]) | Plant response rating, Cocklebur (cocklebur; [3]) | Plant response rating, Cocklebur (cocklebur; [4]) | Cocklebur plant response rating (cocklebur; [5]) | Cocklebur plant response rating (0 to 10 scale) (cocklebur; Preemergence, Rate 250 g/ha) | Cocklebur plant response rating (cocklebur; [6]) | Plant response rating, Cocklebur (cocklebur; [7])
4: Giant foxtail plant response rating (giant foxtail; [1]) | Giant foxtail plant response rating (giant foxtail; [2]) | Plant response rating, Giant foxtail (giant foxtail; [7]) | Plant response rating, Soybean (soybean; [3]) | Plant response rating, Soybean (soybean; [7]) | Blackgrass plant response rating (0 to 10 scale) (blackgrass; Preemergence, Rate 250 g/ha) | Blackgrass plant response rating (blackgrass; [6]) | Plant response rating, Velvetleaf (velvetleaf; [3]) | Plant response rating, Velvetleaf (velvetleaf; [7])
6: Plant response rating, Crabgrass (crabgrass; [3]) | Plant response rating, Crabgrass (crabgrass; [7]) | Plant response rating, Giant foxtail (giant foxtail; [3])
7: Plant response rating, Crabgrass (crabgrass; [4])
